Data: patent US9493420B2, “Quinoline derivatives and uses thereof” (Portland State University, priority 2005, dated 2016)

Assays:
[1] = Adverse side effects in treated mice of the 4-day suppressive test; assay type: in vivo; details: 64, 32, 16 mg/kg oral gavage once per day for four days; CF-1 mice
Description: A variation of the 4-day suppressive test described by Peters (Ann. Trop. Med. Parasitol., 69(2):155-171, 1975) was used to test the in vivo effectiveness of RCQ_02 as a treatment for Plasmodium sp. infection. Briefly, P. chabaudi parasites (Mackinnon and Read, Philos. Trans. R. Soc. Lond. B Biol. Sci., 359:965-986, 2004) were collected from a donor animal harboring approximately 20% parasitemia. Sixteen (16) male CF-1 mice at 4-5 weeks of age (approximately 20 g) were infected with approximately 10^7 infected red blood cells via 100 μL tail vein injection. The infected mice were randomly sorted into groups of 4 mice each on day 0. One hour after infection, each group of four mice received 64, 32, 16, or 0 mg/kg RCQ_02 via oral gavage once per day for four days. After the treatment course, the animals were weighed and blood collected for the determination of parasite burden via direct microscopic analysis of Giemsa-stained blood smears. Mice treated with 64 mg/kg RCQ_02 were all cleared of parasites to >99% by day 4.

[2] = molecular target: T1, recombinant human dopamine (HEK-hDAT) transporter (Homo sapiens, UniProt Q01959); assay: Inhibition of [3H]neurotransmitter uptake, hDAT; assay type: cell-based
T1 construct: expressed in transfected cells; host or cells: HEK cells expressing hDAT (HEK-hDAT)
Method: Selected RCQs were tested for inhibition of [^3H]neurotransmitter uptake by the recombinant human serotonin (hSERT), dopamine (HEK-hDAT), and norepinephrine (hNET) transporters by a modification of the method of Eshleman et al. (J. Pharmacol. Exp. Ther., 289(2):877-885, 1999). HEK-hDAT, hSERT, and -hNET expressing cells were grown on tissue culture dishes. After removing the medium and washing the plates with Ca^2+-, Mg^2+-free phosphate buffered saline (PBS), fresh medium was added and the plates were placed in a 25° C. water bath for 5 minutes. Cells were gently lifted from the plates and cell clusters separated by trituration. 50 μL aliquots of the suspended cells were added to assay tubes containing drugs and Krebs-HEPES assay buffer in a final volume of 0.5 mL.
Competition experiments were conducted in triplicate. After a 10 minute preincubation period at 25° C., [^3H]neurotransmitter (20 nM final concentration; [^3H]DA, [^3H]5-HT, or [^3H]NE) were added, and the mixtures incubated for 10 minutes. Reactions were terminated by filtration through Wallac filtermat A filters (presoaked in 0.05% polyethylenimine), using a Tomtec cell harvester. Scintillation fluid was added to each filtered spot, and radioactivity remaining on the filters determined using a Wallac 1205 Betaplate scintillation counter.
Specific uptake was defined as the difference in uptake observed in the absence and presence of 5 μM mazindol (hDAT and hNET) or 5 μM imipramine (hSERT). Inhibition of uptake was determined by non-linear regression using Prism software.

[3] = system: Dd2 (CQ^R) P. falciparum strain; assay: In vitro fluorescence (Sybr Green I) growth inhibition assay, Dd2 strain; assay type: cell-based; details: Plasmodium falciparum, DD2; Table 13; growth inhibition; read-out: IC50 (nM) Dd2 (CQ^R)
Description: One exemplary method for measuring inhibitory effects of RCQ compound in vitro has been reported by Smilkstein et al. (Antimicrob. Agents Chemother., 48(5):1803-1806, 2004). This method employs fluorescent detection of the level of parasitemia in cultured red blood cells and can be automated for high-throughput screening of antimalarial RCQs. This exemplary method allows the inhibitory agent (such as a RCQ) to be in contact with the parasite for an entire developmental cycle without purine starvation, which is in contrast to the traditional ^3H-hypoxanthine method (Desjardins et al., Antimicrob. Agents Chemother., 16(6):710-718, 1979). Briefly, to perform the Smilkstein et al. method, an initial parasitemia of approximately 0.2% is attained by adding uninfected red blood cells (RBCs) to a stock culture of Plasmodium sp.-infected RBCs. […] After a period of incubation (such as about 72 hours), a sufficient amount (e.g., 100 μL) of a fluorescent DNA binding dye-detergent mixture (e.g., Sybr Green I dye-detergent mixture) to lyse cells and bind to DNA is added to the reactions. Because uninfected RBCs have no DNA, only parasite DNA (in infected RBCs) is available for binding to the fluorescent dye (e.g., Sybr Green I). Samples are then incubated in the dark for a period of time (e.g., one hour), followed by measurement of levels of fluorescence. For Sybr Green I, excitation and emission wavelength are 485 and 530 nm, respectively. Fluorescence readings, which represent the amount of parasite DNA in the sample, can be plotted against the Log [drug] and fit to a curve by nonlinear regression to obtain the IC50 value for the tested compound.
An in vitro fluorescence assay for determining IC50 of antimalarial drugs was performed as previously described by Smilkstein et al. (Antimicrob. Agents Chemother., 48(5):1803-1806, 2004). This relatively low-cost procedure can be automated for high-throughput screening of the antimalarial activities of RCQs described herein. Advantageous, this method also allows the tested agent (e.g, a RCQ) to be in contact with the parasite for an entire developmental cycle without purine starvation (which occurs with the commonly used ^3H-hypoxanthine method; see, e.g., Desjardins et al., Antimicrob. Agents Chemother., 16, (6):[…], 1979).
Briefly, an initial parasitemia of approximately 0.2% was attained by addition of uninfected red blood cells to a stock culture of cells infected with Dd2 (CQ^R) or D6 (CQ^S) P. falciparum strains. A 10 mM RCQ_02 solution (in DMSO) was prepared. RCQ_02 (at a final concentration from 10^−11 to 10^−4 M) and infected red blood cells (at a final concentration of 2% (v/v)) were mixed in 100 μL samples in individual wells of a 96-well plate. Each sample was prepared in triplicate. A triplicate set of reactions containing CQ (instead of RCQ_02) was included as a control. After a 72 hour incubation period, Sybr Green I dye-detergent mixture (100 μL) was added to each reaction. The samples were further incubated for an hour in the dark, and then placed in a 96-well fluorescence plate reader (Gemini-EM, […]) and analyzed with excitation and emission wavelength bands at 485 and 530 nm, respectively. Fluorescence readings were plotted against the Log [drug], and curve fitting performed by nonlinear regression to find the IC50 value.

[4] = system: mitogen-induced murine spleen lymphocytes; assay type: cell-based; details: mouse spleen lymphocytes
Method: Mouse spleen lymphocytes were isolated from C57B1/6J mice by teasing tissues on a metallic sieve screen. […] Two hundred (200) μl isolated cells were then seeded in separate wells of a 96-well flat-bottom tissue culture plate at a density of 2×10^5 cells per well. […] After 72 hours incubation in a humidified atmosphere at 37° C. and 5% CO2, a solution of resazurin PBS was added to a final concentration 10 μM, and the plates were returned to the incubator for another 24 hours. Resazurin is a substrate which changes color in response to metabolic activity (such as, living cells). […] LC50 values were determined from plots of florescence versus drug concentration using non-linear regression by Prism software.

T1 sequence (Q01959 whole entry): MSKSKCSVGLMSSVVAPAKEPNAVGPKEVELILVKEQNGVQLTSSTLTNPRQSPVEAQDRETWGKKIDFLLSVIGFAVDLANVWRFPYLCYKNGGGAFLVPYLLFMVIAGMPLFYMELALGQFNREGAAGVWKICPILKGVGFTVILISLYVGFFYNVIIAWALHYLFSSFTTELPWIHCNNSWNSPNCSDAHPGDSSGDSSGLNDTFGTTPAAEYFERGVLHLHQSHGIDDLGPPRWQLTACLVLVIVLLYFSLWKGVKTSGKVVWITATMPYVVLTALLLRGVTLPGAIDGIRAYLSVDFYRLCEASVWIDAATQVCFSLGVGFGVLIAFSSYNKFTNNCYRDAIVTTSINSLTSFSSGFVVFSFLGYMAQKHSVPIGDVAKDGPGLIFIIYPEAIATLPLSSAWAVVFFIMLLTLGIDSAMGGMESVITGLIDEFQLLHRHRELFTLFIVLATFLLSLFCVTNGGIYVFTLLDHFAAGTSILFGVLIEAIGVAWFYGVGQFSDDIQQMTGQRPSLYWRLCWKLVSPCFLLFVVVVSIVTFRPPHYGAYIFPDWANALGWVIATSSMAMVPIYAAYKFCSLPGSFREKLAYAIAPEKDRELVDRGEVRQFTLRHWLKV

IC50 [2]: 2200 nM
Structure (SMILES): CN(CCCNc1ccnc2cc(Cl)ccc12)CCCN1c2ccccc2CCc2ccccc21 [RCQ_02, N′-(7-Chloro-quinolin-4-yl)-N-[3-(10,11-dihydro-dibenzo[b,f]azepin-5-yl)-propyl]-N-methyl-propane-1,3-diamine]
adverse side effects (weight loss, reduced eating, reduced activity, ruffled ungroomed fur) [1]: none of the treated mice showed any adverse side effects
IC50 [3]: 5.3 nM
Cytotoxicity ([4]; LC50, 72 hours + 24 hours resazurin): 700 nM
cytotoxicity values ([4]; Table 14): 700 nM
